Assay results published in patent US9883691B2, “Food and beverage products containing 1,3-propanediol and methods of modifying flavor release using 1,3-propanediol” (Kraft Foods Group Brands LLC, priority 2012, dated 2018).

Columns and labels:
Type in all cases: physicochemical
[1] = PTR-MS headspace release in neat solvent, solvent/solvent experiment (Example 5); set-up: key to Release Differences: “Z” indicates that 1,3-propanediol had higher equilibrium maximum (meaning more of the flavor was released in 1,3-propanediol); “P” indicates that propylene glycol had higher equilibrium maximum; “-” indicates no statistical difference (95% significance) between the two samples; conditions: 1.5 hrs equilibration; for Release Differences: 1,3-propanediol versus propylene glycol as sole solvent, 95% significance
Description: […]. Then the head space was analyzed as described above.
0.86 grams of the concentrate was added to 100 grams of either propylene glycol or 1,3-propanediol to provide a 1,3-propanediol diluted concentrate or propylene glycol diluted concentrate. The diluted concentrates were then further diluted as outlined in Table 10 below.
A 15 gram sample was weighed into a 4 oz vessel and analyzed at 1.5 hrs. of equilibration time as described in the method of Example 4.

[2] = PTR-MS real-time headspace release, watermelon flavor model in water (Example 1); set-up: Sample A (PG) Mean / Sample B (1,3-propanediol) Mean: unit not given here; conditions: for Sample B (1,3-propanediol) Mean / Sample A (PG) Mean: PTR-MS headspace, diluted in water, 90 minutes equilibration, mean of three; for Sample B (1,3-propanediol) Mean: watermelon flavor concentrate in 1,3-propanediol; for Sample A (PG) Mean: watermelon flavor concentrate in propylene glycol; for Percent Release Difference: Sample B (1,3-propanediol) relative to Sample A (PG)
Description: The impact of 1,3-propanediol on the release of flavor compounds can be analyzed by Proton Transfer Reaction Mass Spectrometry (PTR-MS; model TOF-8000 from Ionicon Analytik Inc.), where real-time headspace release of volatiles is measured. A sampling apparatus is needed in conjunction with the PTR-MS inlet to prevent variations caused by headspace kinetics. By one exemplary approach, the sampling apparatus includes a 4 ounce sample vessel equipped with a 2-hole lid which may be sealed by an adhesive film to allow equilibration. […]. The holes are equal sized (˜2 mm diameter) and match the outer diameter of the PTR-MS inlet line. The flow of the dilution gas into the vessel is regulated by the vacuum and proportional valve of the PTR-MS inlet system. The sample vessel has a base diameter of 47 mm and is 45 mm high, of which 8 mm of height is occupied by the sample in the vessel in these experiments. The 2 holes in the lid are equidistant from the edge of the vessel (˜20 mm) and about 30 mm from each other. The PTR-MS inlet is braced by clamps in a fixed position vertically above the laboratory bench (˜55 mm) and a silicone rubber depth gauge is affixed to the PTR-MS inlet tubing and set at 18 mm. The PTR-MS inlet is thus consistently oriented in a vertical position 18 mm below the inside lid of the vessel and 19 mm above the sample in the vessel. The sample vessel is then held in place during sampling according to the depth gauge on the inlet line and the vessel is subsequently supported on the bench by a 10 mm plastic spacer.
15 grams of the sample to be tested (e.g., food or beverage product containing 1,3-propanediol) are added to the vessel. The vessel is sealed and allowed to equilibrate at room temperature (˜22° C.) for 90 minutes. At the time of sampling, the seal is removed from both the sampling hole and the dilution gas hole in the lid and the vessel is immediately affixed to the PTR-MS inlet via the sampling hole. The real-time released flavor is measured from the headspace of the sample vessel for two minutes (according to the conditions listed in Table 1 below). A comparative sample is prepared that is otherwise identical to the test sample but contains propylene glycol or water instead of 1,3-propanediol. The comparative sample is then analyzed in triplicate by PTR-MS using the above-described procedure. The data can be analyzed using PTR-MS Viewer, Version 3.0.0.101 (Ionicon Analytik G.m.b.H). The point of maximum intensity for each compound of interest can be determined and recorded according to the PTR-MS Viewer software. The maximum intensity in counts over the timescale for each compound of interest can be used for data analysis as it reflects the static equilibrium headspace concentration in the system at the moment of seal removal. Due to the necessity of a dilution gas, the volatile concentration decreases over time as the compounds of interest re-equilibrate to a state of dynamic equilibrium in the headspace.
[…]. Sample A was prepared with 20 grams watermelon flavor concentrate and 80 grams propylene glycol. Sample B was prepared with 20 grams watermelon flavor concentrate and 80 grams 1,3-propanediol. Each of the samples was further diluted by adding 0.08 grams of each diluted concentrate to 99.92 grams water to provide a flavor water solution.
The diluted samples were analyzed by Proton Transfer Reaction Mass Spectrometry (PTR-MS; model TOF-8000 from Ionicon Analytik Inc.) for real-time headspace release volatiles measurement. Samples were analyzed in triplicate. […]. […].

[3] = PTR-MS headspace release from stored beverages, water/solvent experiment (Example 4); conditions: beverage stored refrigerated; 1.5, 24, 48 and 72 hours; Tukey-Kramer
Description: 0.86 grams of the flavor concentrate was then added to 100 grams of either propylene glycol or 1,3-propanediol to provide diluted concentrates. […].
The beverages were then stored in sealed containers in a refrigerator. The container was opened five times over the course of the experiment and therefore represented a beverage in a sealed container being opened for multiple uses. 15 gram samples were weighed into a 4 ounce cup and analyzed at 1.5 hours, 24 hours, 48 hours, and 72 hours after storage.
The samples were analyzed in triplicate by PTR-MS as described below to determine impact of 1,3-propanediol or propylene glycol on release of the flavors from the beverage. The PTR-MS was performed as follows. A sampling apparatus was needed in conjunction with the PTR-MS inlet to prevent variations caused by headspace kinetics. The sampling apparatus used includes a 4 ounce sample vessel equipped with a 2-hole lid which may be sealed by an adhesive film to allow equilibration. […]. The holes were equal sized (˜2 mm diameter) and match the outer diameter of the PTR-MS inlet line. The flow of the dilution gas into the vessel was regulated by the vacuum and proportional valve of the PTR-MS inlet system. […] The 2 holes in the lid were equidistant from the edge of the vessel (˜20 mm) and ˜30 mm from each other. The PTR-MS inlet was braced by clamps in a fixed position vertically above the laboratory bench (˜55 mm) and a silicone rubber depth gauge was affixed to the PTR-MS inlet tubing and set at 18 mm. The PTR-MS inlet was consistently oriented in a vertical position […] below the inside lid of the vessel and 19 mm above the sample in the vessel. The sample vessel was then held in place during sampling according to the depth gauge on the inlet line and the vessel was subsequently supported on the bench by a 10 mm plastic spacer.
15 grams of the sample to be tested (e.g., food or beverage product containing 1,3-propanediol) are added to the vessel and the vessel is sealed and allowed to equilibrate at room temperature (˜22° C.) for 90 minutes. At the time of sampling, the seal was removed from both the sampling hole and the dilution gas hole in the lid and the vessel was immediately affixed to the PTR-MS inlet via the sampling hole. The real-time released flavor was measured from the headspace of the sample vessel for two minutes (according to the conditions listed in Table 1 above).
The data was analyzed using PTR-MS Viewer, Version 3.0.0.101 (Ionicon Analytik G.m.b.H). The point of maximum intensity for each compound of interest was determined and recorded according to the PTR-MS Viewer software. The maximum intensity in counts over the timescale for each compound of interest was used for data analysis as it reflected the static equilibrium headspace concentration in the system at the moment of seal removal. Due to the necessity of a dilution gas, the volatile concentration decreased over time as the compounds of interest re-equilibrated to a state of dynamic equilibrium in the headspace.
The statistical differences were determined by Tukey-Kramer Honest […]. […].

Row | Compound | Release Differences [1] | Sample B (1,3-propanediol) Mean [2] | Sample A (PG) Mean [2] | Percent Release Difference [2] [%] | effect of 1,3-propanediol on flavor release relative to propylene glycol, water/solvent [3] | release in 1,3-propanediol versus propylene glycol, solvent/solvent [1]
1 | O=Cc1ccccc1 [Benzaldehyde] | P | 32.00 | 39.67 | −19.3 | significantly suppressed release | –
2 | CC=O [Acetaldehyde] | Z | 877 | 803.33 | 9.1 | released faster in propylene glycol | released faster (as evidenced by higher headspace concentration) in 1,3-propanediol
3 | CCCC(=O)OCC [Ethyl butyrate] | Z | 5827 | 10983 | −46.9 | little effect | –
